Results published in PubChem BioAssay (NCI).
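48-hour exposure; five concentrations; linearly interpolated endpoints. TGI: concentration producing complete growth inhibition.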

What was measured:
Assay in all cases: NCI-60 cell line screen, 48 h
UACC-257 melanoma = tested on: UACC-257 melanoma
BT-549 breast = tested on: BT-549 breast
NCI-H226 lung = tested on: NCI-H226 lung
TK-10 renal = tested on: TK-10 renal
HT29 colon = tested on: HT29 colon
LOX IMVI melanoma = tested on: LOX IMVI melanoma
M14 melanoma = tested on: M14 melanoma
ACHN renal = tested on: ACHN renal
HOP-92 NSCLC = tested on: HOP-92 NSCLC
A498 renal = tested on: A498 renal
HCC-2998 colon = tested on: HCC-2998 colon
SN12C renal = tested on: SN12C renal
UO-31 renal = tested on: UO-31 renal
MALME-3M melanoma = tested on: MALME-3M melanoma
CAKI-1 renal = tested on: CAKI-1 renal
K-562 leukemia = tested on: K-562 leukemia
UACC-62 melanoma = tested on: UACC-62 melanoma
SK-MEL-2 melanoma = tested on: SK-MEL-2 melanoma
COLO 205 colon = tested on: COLO 205 colon
SK-OV-3 ovarian = tested on: SK-OV-3 ovarian
SW-620 colon = tested on: SW-620 colon
MDA-N = tested on: MDA-N
PC-3 prostate = tested on: PC-3 prostate
MDA-MB-435 = tested on: MDA-MB-435
NCI/ADR-RES ovarian = tested on: NCI/ADR-RES ovarian
OVCAR-5 ovarian = tested on: OVCAR-5 ovarian
IGROV1 ovarian = tested on: IGROV1 ovarian
SK-MEL-5 melanoma = tested on: SK-MEL-5 melanoma
DU-145 prostate = tested on: DU-145 prostate
NCI-H23 lung = tested on: NCI-H23 lung
NCI-H460 lung = tested on: NCI-H460 lung
SF-295 CNS = tested on: SF-295 CNS
A549 NSCLC = tested on: A549 NSCLC
MDA-MB-231 breast = tested on: MDA-MB-231 breast
SK-MEL-28 melanoma = tested on: SK-MEL-28 melanoma
OVCAR-3 ovarian = tested on: OVCAR-3 ovarian
HCT-116 colon = tested on: HCT-116 colon
MOLT-4 leukemia = tested on: MOLT-4 leukemia
HL-60(TB) leukemia = tested on: HL-60(TB) leukemia
786-0 renal = tested on: 786-0 renal
HCT-15 colon = tested on: HCT-15 colon
HOP-62 NSCLC = tested on: HOP-62 NSCLC
SR leukemia = tested on: SR leukemia
OVCAR-8 ovarian = tested on: OVCAR-8 ovarian
MCF7 breast = tested on: MCF7 breast
CCRF-CEM leukemia = tested on: CCRF-CEM leukemia
KM12 colon = tested on: KM12 colon
RPMI-8226 leukemia = tested on: RPMI-8226 leukemia
U251 CNS = tested on: U251 CNS
SNB-19 CNS = tested on: SNB-19 CNS
EKVX NSCLC = tested on: EKVX NSCLC
OVCAR-4 ovarian = tested on: OVCAR-4 ovarian
SF-539 CNS = tested on: SF-539 CNS
SF-268 CNS = tested on: SF-268 CNS
T-47D breast = tested on: T-47D breast
SNB-75 CNS = tested on: SNB-75 CNS

Compound: c1ccc2cc3c(cc2c1)Nc1c2ccccc2nc2cccc-3c12
- TGI (UACC-257 melanoma): 2920 nM
- TGI (BT-549 breast): 38.4 µM
- TGI (NCI-H226 lung): 5.03 µM
- TGI (TK-10 renal): 3.28 µM
- TGI (HT29 colon): 3.2 µM
- TGI (LOX IMVI melanoma): 2930 nM
- TGI (M14 melanoma): 3.76 µM
- TGI (ACHN renal): 2.88 µM
- TGI (HOP-92 NSCLC): 2860 nM
- TGI (A498 renal): 6.8 µM
- TGI (HCC-2998 colon): 3.1 µM
- TGI (SN12C renal): 3.08 µM
- TGI (UO-31 renal): 3 µM
- TGI (MALME-3M melanoma): 3.07 µM
- TGI (CAKI-1 renal): 3.05 µM
- TGI (K-562 leukemia): > 100 µM
- TGI (UACC-62 melanoma): 3.57 µM
- TGI (SK-MEL-2 melanoma): 2840 nM
- TGI (COLO 205 colon): 3.02 µM
- TGI (SK-OV-3 ovarian): 3.01 µM
- TGI (SW-620 colon): 2910 nM
- TGI (MDA-N): 2.83 µM
- TGI (PC-3 prostate): 2.87 µM
- TGI (MDA-MB-435): 3.43 µM
- TGI (NCI/ADR-RES ovarian): 4.69 µM
- TGI (OVCAR-5 ovarian): 3.22 µM
- TGI (IGROV1 ovarian): 2750 nM
- TGI (SK-MEL-5 melanoma): 3.11 µM
- TGI (DU-145 prostate): 3.1 µM
- TGI (NCI-H23 lung): 2610 nM
- TGI (NCI-H460 lung): 3.26 µM
- TGI (SF-295 CNS): 2960 nM
- TGI (A549 NSCLC): 3.3 µM
- TGI (MDA-MB-231 breast): 2.45 µM
- TGI (SK-MEL-28 melanoma): 3.12 µM

Compound: O=C(c1cccc2ccccc12)C1S(=O)(=O)OCCOS1(=O)=O
- TGI (OVCAR-3 ovarian): > 100 µM
- TGI (BT-549 breast): > 100 µM
- TGI (HCT-116 colon): > 100 µM
- TGI (MOLT-4 leukemia): > 100 µM
- TGI (HL-60(TB) leukemia): > 100 µM
- TGI (786-0 renal): > 100 µM
- TGI (TK-10 renal): > 100 µM
- TGI (HCT-15 colon): > 100 µM
- TGI (HT29 colon): > 100 µM
- TGI (M14 melanoma): > 100 µM
- TGI (ACHN renal): > 100 µM
- TGI (HOP-62 NSCLC): > 100 µM
- TGI (HCC-2998 colon): > 100 µM
- TGI (SN12C renal): > 100 µM
- TGI (SR leukemia): > 100 µM
- TGI (UO-31 renal): > 100 µM
- TGI (MALME-3M melanoma): > 100 µM
- TGI (CAKI-1 renal): > 100 µM
- TGI (K-562 leukemia): > 100 µM
- TGI (OVCAR-8 ovarian): > 100 µM
- TGI (MCF7 breast): > 100 µM
- TGI (SK-MEL-2 melanoma): > 100000 nM
- TGI (COLO 205 colon): > 100 µM
- TGI (CCRF-CEM leukemia): > 100 µM
- TGI (KM12 colon): > 100 µM
- TGI (MDA-N): > 100 µM
- TGI (RPMI-8226 leukemia): > 100 µM
- TGI (PC-3 prostate): > 100 µM
- TGI (U251 CNS): > 100 µM
- TGI (NCI/ADR-RES ovarian): > 100 µM
- TGI (OVCAR-5 ovarian): > 100 µM
- TGI (SK-MEL-5 melanoma): > 100 µM
- TGI (DU-145 prostate): > 100 µM
- TGI (SNB-19 CNS): > 100 µM
- TGI (NCI-H23 lung): > 100000 nM
- TGI (NCI-H460 lung): > 100 µM
- TGI (EKVX NSCLC): > 100 µM
- TGI (SF-295 CNS): 41.2 nM
- TGI (A549 NSCLC): > 100 µM
- TGI (MDA-MB-231 breast): > 100 µM
- TGI (OVCAR-4 ovarian): > 100 µM
- TGI (SK-MEL-28 melanoma): > 100 µM

Compound: COc1cc2c(cc1OC)C1c3ccccc3CCN1CCC2 (configuration not stated)
- TGI (UACC-257 melanoma): > 100000 nM
- TGI (OVCAR-3 ovarian): > 100 µM
- TGI (BT-549 breast): 81.4 µM
- TGI (HCT-116 colon): > 100 µM
- TGI (NCI-H226 lung): > 100 µM
- TGI (MOLT-4 leukemia): > 100 µM
- TGI (HL-60(TB) leukemia): > 100 µM
- TGI (786-0 renal): > 100 µM
- TGI (TK-10 renal): > 100 µM
- TGI (HCT-15 colon): > 100 µM
- TGI (HT29 colon): > 100 µM
- TGI (LOX IMVI melanoma): > 100000 nM
- TGI (M14 melanoma): > 100 µM
- TGI (ACHN renal): > 100 µM
- TGI (HOP-62 NSCLC): > 100 µM
- TGI (HCC-2998 colon): > 100 µM
- TGI (SN12C renal): > 100 µM
- TGI (SR leukemia): > 100 µM
- TGI (UO-31 renal): > 100 µM
- TGI (MALME-3M melanoma): > 100 µM
- TGI (CAKI-1 renal): > 100 µM
- TGI (K-562 leukemia): > 100 µM
- TGI (OVCAR-8 ovarian): > 100 µM
- TGI (MCF7 breast): > 100 µM
- TGI (UACC-62 melanoma): > 100 µM
- TGI (COLO 205 colon): > 100 µM
- TGI (CCRF-CEM leukemia): > 100 µM
- TGI (SK-OV-3 ovarian): > 100 µM
- TGI (SW-620 colon): > 100000 nM
- TGI (KM12 colon): > 100 µM
- TGI (MDA-N): > 100 µM
- TGI (RPMI-8226 leukemia): > 100 µM
- TGI (PC-3 prostate): > 100 µM
- TGI (U251 CNS): > 100 µM
- TGI (MDA-MB-435): > 100 µM
- TGI (SF-539 CNS): > 100 µM
- TGI (NCI/ADR-RES ovarian): > 100 µM
- TGI (OVCAR-5 ovarian): > 100 µM
- TGI (IGROV1 ovarian): > 100000 nM
- TGI (SK-MEL-5 melanoma): > 100 µM
- TGI (DU-145 prostate): > 100 µM
- TGI (SF-268 CNS): > 100 µM
- TGI (SNB-19 CNS): > 100 µM
- TGI (EKVX NSCLC): > 100 µM
- TGI (SF-295 CNS): > 100000 nM
- TGI (A549 NSCLC): > 100 µM
- TGI (MDA-MB-231 breast): > 100 µM
- TGI (T-47D breast): > 100 µM
- TGI (SK-MEL-28 melanoma): > 100 µM
- TGI (SNB-75 CNS): > 100 µM
